Read-outs that look alike come from different tables or passages of the source.
Key:
[1] = cited from earlier work
[2] = in vivo, prepared as an aqueous solution; cited from earlier work
[3] = Study of pharmacokinetics, intramuscular injection in male rats; format: in vivo; conditions: whole blood, im, rat; for AUC: read-out: AUC0=last
Description: Study of Pharmacokinetics
3 Male rats for each group, the compound as shown in formula (I) was administered by intramuscular injection. Whole blood samples were collected at 0.25, 0.50, 1.0, 2.0, 4.0, 8.0, 12.0, 24.0 and 48.0 hour(s) after administration of the aqueous suspension group. Whole blood samples were collected at 0.25, 0.50, 2.0, 4.0, 8.0, 10.0, 24.0, 48.0, 72.0, 96.0, 120.0 and 144.0 hour(s) after administration of the oil suspension group. After precipitating the protein with acetonitrile/methanol, the supernatant was collected for sampling and the blood concentration of the compound was determined by LC-MS/MS. The non-compartment model linear logarithmic trapezoid method was used to calculate the pharmacokinetic parameters of the compounds as shown in formula (I) and formula (II) respectively by using WinNonlin™ Version 6.3 (Pharsight, Mountain View, Calif.) pharmacokinetic software.

[4] = releases formula (II) after hydrolysis in vivo; cited from earlier work
[5] = intramuscular injection of oil suspension of formula (I), 51.4 μM/Kg
[6] = intramuscular injection of oil suspension of formula (I), 51.4 μM/Kg, 44.50 mg/mL, 0.25% Tween 80, medium chain triglyceride
[7] = intramuscular injection of aqueous suspension of formula (I), 17.5 μM/Kg

Compound	solubility in oil solution ([1]; oil solution)	solubility in water ([1]; water)	clearance rate [2]	half-life [2]	Tmax [3, 5] [h]	Cmax [3, 6] [nM]	AUC [3, 5] [µM·h]	stability in plasma [4]	AUC(0-inf) [3, 7] [µM·h]	Tmax [3, 7] [h]	half-life [3, 7] [h]	Cmax ([3]; intramuscular injection of aqueous suspension of formula (I), 17.5 μM/Kg, 25 μm/mL, 1% Tween 20, 7.5% PEG 1000, 0.75% citric acid monohydrate) [nM]	AUC [3, 7] [µM·h]	AUC(0-inf) [3, 5] [µM·h]	half-life [3, 5] [h]
C[C@@]12CCCCC[C@@H](Cc3c(F)cc(OC(=O)CCCCCCCCC(=O)Oc4cc(F)c5c(c4)[C@@]4(C)CCCCC[C@@H](C5)[C@@H]4N)cc31)[C@@H]2N [formula (I)]	hardly soluble or insoluble	slightly soluble	too fast	short	0.25	5.05	0.11	unstable	–	–	–	–	–	–	–
C[C@@]12CCCCC[C@@H](Cc3c(F)cc(O)cc31)[C@@H]2N [formula (II)]	–	–	–	–	2	378	10.1	–	5.81	4	7.52	438	5.71	10.4	24.1

Source: patent US10744109B2, “Sustained release suspension containing dezocine analogue ester and preparation method therefor” (SHANDONG DANHONG PHARMACEUTICAL CO., LTD., priority 2017, dated 2020)
